{"source": "patent US6420570B1", "about": "“Psoralen compounds” (priority 1993, dated 2002)", "key": {"R17": {"test_system": "R17", "assay": "R17 inactivation at constant concentration, varying doses of UV light", "format": "cell-based, bacteriophage R17", "conditions": "UV doses 1.0 to 3.0 J/cm^2, FIGS. 11-17", "procedure": "Compounds of the present invention were also tested at a constant concentration for varying doses of UV light. Three sets of 1.5 mL tubes were prepared containing 0.6 mL aliquots of R17 in DMEM (prepared as described above). The compound tested was added at the desired concentration and the samples were vortexed. The samples were then irradiated at intervals of 1.0 J/cm^2, until 3.0 J/cm^2 was reached. Between each 1.0 J/cm^2 interval, 100 μL was removed from each sample and placed in the first corresponding dilution tube, then five sequential dilutions were performed for each compound tested, at all 3 irradiation doses, as described above in this example.\nThen 50 μL of Hfr 3000 bacteria was added to each tube, 3 mL of top agar was added and the tube contents were vortexed. The contents of each tube was poured into its own LB plate and the plates were incubated overnight at 37° C. Plaques were counted by visual inspection the following morning."}, "cell-free virus (HIV)": {"test_system": "cell-free virus (HIV)", "format": "cell-based", "conditions": "Table 9, 1 minute irradiation, HIV starting titer approximately 5.4 logs", "experimental": "Pathogen inactivation efficiency of several compounds of the present invention was evaluated by examining the ability of the compounds to inactivate cell-free virus (HIV). Inactivation of cell-free HIV was performed as follows.\nAs in the R17 assay, small aliquots of the compounds listed in TABLES 8 and 9, below, at the concentrations listed in the table, were added to stock HIV-1 to a total of 0.5 mL. The stock HIV (10^5-10^7 plaque forming units/mL) was in DMEM/15% FBS. […] Controls included HIV-1 stock only, HIV-1 plus UVA only, and HIV-1 plus the highest concentration of each psoralen tested, with no UVA. Post irradiation, all samples were stores frozen at −70° C. until assayed for infectivity by a microtiter plaque assay. Aliquots for measurement of residual HIV infectivity in the samples treated with a compound of the present invention were withdrawn and cultured.\nResidual HIV infectivity was assayed using an MT-2 infectivity assay. […] The assay medium was 85% DMEM (with a high glucose concentration) containing 100 μg of streptomycin, 100 U of penicillin, 50 μg of gentamicin, and 1 μg of amphotericin B per mL, 15% FBS and 2 μg of Polybrene (Sigma Chemical Co., St. Louis, Mo.) per mL. Test and control samples from the inactivation procedure were diluted in 50% assay medium and 50% normal human pooled plasma. The samples were serially diluted directly in 96-well plates (Corning Glass Works, corning, N.Y.). The plates were mixed on an oscillatory shaker for 30 seconds and incubated at 37° C. in a 5% CO2 atmosphere for 1 to 18 hours. […] After an additional 1 hour of incubation at 37° C. in 5% CO2, 0.075 mL of assay medium containing 1.6% SeaPlaque agarose (FMC Bioproducts, Rockland, me.) and prewarmed to 38.5° C. was added to each well. The plates were kept at 37° C. for a few minutes until several plates had accumulated and then centrifuged in plate carriers at 600×g for 20 minutes in a centrifuge precooled to 10° C. In the centrifuge, cell monolayers formed prior to gelling of the agarose layer. The plates were incubated for 5 days at 37° C. in 5% CO2 and stained by the addition of 0.05 mL of 50 μg/mL propidium iodide (Sigma Chemical Co.) in phosphate-buffered saline (pH 7.4) to each well. After 24 to 48 hours, the red fluorescence-stained microplaques were visualized by placing the plates on an 8,000 μW/cm^2 304 nm UV light box (Fotodyne, Inc., New Berlin, Wis.). The plaques were counted at a magnification of ×20 to ×25 through a stereomicroscope. “n” represents the number of runs for which the data point is an average."}}}
{"smiles": "Cc1cc(=O)oc2c(C)c3oc(CNCCCCN)c(C)c3cc12.Cl.Cl", "note": "[Compound 17, 5′-(6-Amino-2-aza)hexyl-4,4′,8-trimethylpsoralen Dihydrochloride]", "values": [{"measurement": "R17 inactivation compared with AMT", "setting": "R17", "result": "more efficient at inactivating R17 than was AMT"}, {"measurement": "HIV Log Kill 16 μM", "setting": "cell-free virus (HIV); 16 μM", "result": 1.2, "unit": "log"}, {"measurement": "HIV Log Kill 64 μM", "setting": "cell-free virus (HIV); 64 μM", "result": 3.4, "unit": "log"}]}
